Test results: PMC9732439, “Biochemical and in silico inhibition of bovine and human carbonic anhydrase-II by 1H-1,2,3-triazole analogs” (Frontiers in Chemistry, 2022)

Key:
bCA-II [1] = biological target: T1, bCA-II (Bos taurus, UniProt P00921); test: In vitro carbonic anhydrase inhibition assay (p-NPA, spectrophotometric), bCA-II; assay type: biochemical, bovine; details: for IC50 / bCA-II IC50 ± S.E.M.: bovine CA-II, substrate p-NPA, 15 min at 25°C, triplicate; for IC50: read-out: bCA-II IC50 ± S.E.M.
T1 sequence (P00921 whole entry): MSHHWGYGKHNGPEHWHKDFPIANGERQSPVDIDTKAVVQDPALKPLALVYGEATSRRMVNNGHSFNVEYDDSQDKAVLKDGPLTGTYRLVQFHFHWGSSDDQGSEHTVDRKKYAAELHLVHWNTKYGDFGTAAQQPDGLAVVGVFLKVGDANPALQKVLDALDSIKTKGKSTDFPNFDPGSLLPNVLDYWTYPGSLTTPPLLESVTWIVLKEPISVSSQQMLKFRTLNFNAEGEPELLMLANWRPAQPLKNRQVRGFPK
Protocol: Total assay volume comprises 140 µl of HEPES-Tris buffer, 20 µl of bCA-II solution (0.1 mg/ml HEPES-Tris buffer), 20 µl of the test compound (prepared in DMSO), and 20 µl p-NPA (0.7 mM, methanol). First, the test compound and enzyme were incubated for 15 min at 25°C; after incubation, in quick sequence, substrate was added to each experiment in 96-well plates, which were placed in the ^xMARK microplate spectrophotometer (Bio-Rad, United States), and the absorbance was set to 400 nm with 1 min interval time. The activity of the controlled compound was taken as 100%.

hCA-II [2] = biological target: T2, hCA-II (Homo sapiens, UniProt P00918); test: In vitro carbonic anhydrase inhibition assay (p-NPA, spectrophotometric), hCA-II; assay type: biochemical; details: for hCA-II IC50 ± S.E.M. / IC50: human CA-II, substrate p-NPA, triplicate; for IC50: read-out: hCA-II IC50 ± S.E.M.; for Selectivity for hCA-II: hCA-II versus bCA-II
hCA-II [3] = biological target: T2, hCA-II; test: Kinetics study against hCA-II; assay type: biochemical; details: for Kmapp: Michaelis–Menten constant in the presence of inhibitor; for Vmaxapp: maximum velocity in the presence of inhibitor; for Ki: read-out: Ki ± SEM
Protocol: (§1) Soon after the incubation, various concentrations of substrate were added to the reaction medium (01–0.8 mM). The enzyme activity was measured under steady-state conditions by observing changes in absorbance for 30 min at 400 nm on the microtiter plate reader (Bio-Rad X-Mark^Tm molecular spectrometer, United States). The results were analyzed and processed by Grafit 7 software (Erithacus Software Limited, United Kingdom). Different kinetic parameters of enzymes (e.g., Vmax, Km, Vmaxapp, and Kmapp) and values of correlation coefficients, intercepts, slopes, and their standard error mean were calculated by the linear regression graph by Grafit 7. Linear regression analysis was used to calculate the “best fit” line or curve through a dataset by minimizing the deviation of the data from the curve.

bCA-II [4] = biological target: T1, bCA-II; test: Kinetics study against bCA-II; assay type: biochemical, bovine; details: for Kmapp: Michaelis–Menten constant in the presence of inhibitor; for Vmaxapp: maximum velocity in the presence of inhibitor; for Ki: read-out: Ki ± SEM
Protocol: as §1

COc1cc(-c2ccc(F)cc2)ccc1O[C@H](C)Cn1cc(-c2ccc(C(F)(F)F)cc2)nn1 [Compound 9d]
IC50 (bCA-II [1]): 28.8 ± 0.4 µM
hCA-II IC50 ± S.E.M. (hCA-II [2]): Inactive

COc1cc(Br)ccc1O[C@H](C)Cn1cc(-c2ccccc2)nn1 [Compound 7a]
IC50 (bCA-II [1]): 21.4 ± 0.1 µM
IC50 (hCA-II [2]): 35.3 ± 0.6 µM

COc1cc(-c2ccc([N+](=O)[O-])cc2)ccc1O[C@H](C)Cn1cc(-c2ccc(F)cc2)nn1 [Compound 9i]
Type of inhibition (hCA-II [3]): competitive inhibition
Kmapp (hCA-II [3]): 3.9 mM
Vmaxapp (hCA-II [3]): 26.1 (µmol/min)^−1
Ki (hCA-II [3]): 8.1 ± 0.04 µM
IC50 (bCA-II [1]): 11.1 ± 0.2 µM
IC50 (hCA-II [2]): 10.9 ± 1 µM
Type of inhibition (bCA-II [4]): competitive inhibition
Kmapp (bCA-II [4]): 5.6 mM
Vmaxapp (bCA-II [4]): 23.2 (µmol/min)^−1
Ki (bCA-II [4]): 9.4 ± 0.3 µM

COc1cc(-c2ccc3ccccc3c2)ccc1O[C@H](C)Cn1cc(-c2ccc(F)cc2)nn1 [Compound 9q]
bCA-II IC50 ± S.E.M. (bCA-II [1]): Inactive
hCA-II IC50 ± S.E.M. (hCA-II [2]): Inactive

COc1cc(-c2ccc(C)cc2)ccc1O[C@H](C)Cn1cc(-c2ccc(C(F)(F)F)cc2)nn1 [Compound 9a]
IC50 (bCA-II [1]): 25.7 ± 0.2 µM
IC50 (hCA-II [2]): 21 ± 1 µM

COc1cc(-c2ccccc2)ccc1O[C@H](C)Cn1cc(-c2ccc(F)cc2)nn1 [Compound 9f]
IC50 (bCA-II [1]): 88.4 ± 0.3 µM
hCA-II IC50 ± S.E.M. (hCA-II [2]): Inactive

COc1cc(-c2cc(C(F)(F)F)cc(C(F)(F)F)c2)ccc1O[C@H](C)Cn1cc(-c2ccc(F)cc2)nn1 [Compound 9m]
IC50 (bCA-II [1]): 41 ± 0.4 µM
IC50 (hCA-II [2]): 27.4 ± 0.9 µM

COc1cc(-c2ccc([N+](=O)[O-])cc2)ccc1O[C@H](C)Cn1cc(-c2ccc(C(F)(F)F)cc2)nn1 [Compound 9e]
IC50 (bCA-II [1]): 17.8 ± 0.8 µM
hCA-II IC50 ± S.E.M. (hCA-II [2]): Inactive

COc1cc(-c2c(F)cccc2F)ccc1O[C@H](C)Cn1cc(-c2ccc(F)cc2)nn1 [Compound 9o]
Type of inhibition (hCA-II [3]): competitive inhibition
Kmapp (hCA-II [3]): 4.2 mM
Vmaxapp (hCA-II [3]): 25.3 (µmol/min)^−1
Ki (hCA-II [3]): 6.5 ± 0.19 µM
IC50 (bCA-II [1]): 14.1 ± 0.2 µM
IC50 (hCA-II [2]): 13.6 ± 1 µM
Type of inhibition (bCA-II [4]): competitive inhibition
Kmapp (bCA-II [4]): 4.9 mM
Vmaxapp (bCA-II [4]): 24.6 (µmol/min)^−1
Ki (bCA-II [4]): 11.3 ± 0.17 µM

COc1cc(Br)ccc1O[C@H](C)Cn1cc(-c2ccc(C(F)(F)F)cc2)nn1 [Compound 7b]
IC50 (bCA-II [1]): 20.6 ± 0.3 µM
IC50 (hCA-II [2]): 45.1 ± 0.5 µM

COc1cc(Br)ccc1O[C@H](C)Cn1cc(-c2ccc(F)cc2)nn1 [Compound 7c]
IC50 (bCA-II [1]): 20.4 ± 0.3 µM
IC50 (hCA-II [2]): 22.8 ± 0.2 µM

COc1cc(-c2ccc(C#N)cc2)ccc1O[C@H](C)Cn1cc(-c2ccc(F)cc2)nn1 [Compound 9k]
bCA-II IC50 ± S.E.M. (bCA-II [1]): Inactive
Selectivity for hCA-II (hCA-II [2]): selective inhibitors of the hCA-II
IC50 (hCA-II [2]): 21.3 ± 0.8 µM

COc1ccc(-c2ccc(O[C@H](C)Cn3cc(-c4ccc(F)cc4)nn3)c(OC)c2)cc1 [Compound 9h]
IC50 (bCA-II [1]): 12.9 ± 1 µM
hCA-II IC50 ± S.E.M. (hCA-II [2]): Inactive

COC(=O)c1cn(C[C@@H](C)Oc2ccc(Br)cc2OC)nn1 [Compound 7d]
IC50 (bCA-II [1]): 12.3 ± 0.4 µM
IC50 (hCA-II [2]): 25.1 ± 0.4 µM

COc1ccc(-c2ccc(O[C@H](C)Cn3cc(-c4ccc(C(F)(F)F)cc4)nn3)c(OC)c2)cc1 [Compound 9b]
IC50 (bCA-II [1]): 39.1 ± 0.3 µM
IC50 (hCA-II [2]): 22.4 ± 0.4 µM

COc1cc(-c2ccc(C=O)cc2)ccc1O[C@H](C)Cn1cc(-c2ccc(F)cc2)nn1 [Compound 9n]
IC50 (bCA-II [1]): 22.4 ± 0.4 µM
IC50 (hCA-II [2]): 23 ± 0.3 µM

COc1cc(-c2ccc(Cl)cc2)ccc1O[C@H](C)Cn1cc(-c2ccc(F)cc2)nn1 [Compound 9j]
bCA-II IC50 ± S.E.M. (bCA-II [1]): Inactive
IC50 (hCA-II [2]): 18.5 ± 0.4 µM

COc1cc(-c2ccc(F)cc2)ccc1O[C@H](C)Cn1cc(-c2ccc(F)cc2)nn1 [Compound 9l]
bCA-II IC50 ± S.E.M. (bCA-II [1]): Inactive
hCA-II IC50 ± S.E.M. (hCA-II [2]): Inactive

COc1cc(-c2ccc(F)c(F)c2F)ccc1O[C@H](C)Cn1cc(-c2ccc(F)cc2)nn1 [Compound 9p]
bCA-II IC50 ± S.E.M. (bCA-II [1]): Inactive
Selectivity for hCA-II (hCA-II [2]): selective inhibitors of the hCA-II
IC50 (hCA-II [2]): 19.3 ± 0.2 µM

COc1cc(-c2ccc(C(C)=O)cc2)ccc1O[C@H](C)Cn1cc(-c2ccc(F)cc2)nn1 [Compound 9r]
Selectivity for bCA-II (bCA-II [1]; bCA-II versus hCA-II): selective inhibitors of bCA-II
IC50 (bCA-II [1]): 29 ± 1 µM
hCA-II IC50 ± S.E.M. (hCA-II [2]): Inactive

COc1cc(-c2ccc(C)cc2)ccc1O[C@H](C)Cn1cc(-c2ccc(F)cc2)nn1 [Compound 9g]
IC50 (bCA-II [1]): 16.4 ± 0.4 µM
hCA-II IC50 ± S.E.M. (hCA-II [2]): Inactive

COc1cc(-c2cc3ccccc3s2)ccc1O[C@H](C)Cn1cc(-c2ccc(F)cc2)nn1 [Compound 9s]
bCA-II IC50 ± S.E.M. (bCA-II [1]): Inactive
hCA-II IC50 ± S.E.M. (hCA-II [2]): Inactive

COc1cc(-c2ccccc2C(F)(F)F)ccc1O[C@H](C)Cn1cc(-c2ccc(C(F)(F)F)cc2)nn1 [Compound 9c]
bCA-II IC50 ± S.E.M. (bCA-II [1]): Inactive
Selectivity for hCA-II (hCA-II [2]): selective inhibitors of the hCA-II
IC50 (hCA-II [2]): 12.5 ± 0.6 µM
